Data taken from patent EP3778613A1, “THIRD GENERATION DENDRIMER, PROCESS FOR PRODUCTION THEREOF AND USE THEREOF” (Consejo Superior de Investigaciones Científicas (CSIC), priority 2019, dated 2021).

Key:
[1] = r.t. 7T, reference value for the clinical Gd contrast agent; cited from earlier work
[2] = Kinetics of reduction of PROXYL with ascorbate, followed by EPR; format: physicochemical; conditions: nitroxide reduction with sodium ascorbate (10-fold excess per PROXYL unit), 100 mM PB pH 7.4, 300 K
Source text: Electronic Paramagnetic Resonance Spectroscopy (EPR) spectra were obtained with an X-Band (9.4 GHz) Bruker ELEXSYS 500 spectrometer equipped with a TE102 microwave cavity, a Bruker variable temperature unit, a field frequency lock system Bruker ER 033 M and equipped with a NMR Gaussmeter Bruker ER 035 M. The modulation amplitude was kept well below the line width, and the microwave power was well below saturation. All samples were previously degassed with Ar. Experiments in aqueous phase were carried out with a quartz flat cell.
Kinetics of reduction of PROXYL with ascorbate. All the solutions were freshly prepared in 100 mM phosphate buffer, pH 7.4. […]
The effect of the dendritic scaffold on nitroxyl rate of reduction was investigated under pseudo-first-order conditions, using a 10-fold excess of sodium ascorbate per PROXYL unit in 100 mM PB pH 7.4 at 300 K. The reduction was monitored by EPR spectroscopy following the decrease of the area under the spectra as a function of time (Figure 4a). As reference, the rate of reduction of 3-carboxy-PROXYL was determined under identical conditions. […] Rate constants were determined by EPR spectroscopy following the decrease of the area under the spectra as a function of time.

[3] = Relaxometric measurements (r1, r2 relaxivity) by MRI at 7 T; conditions: 100 mM phosphate buffer pH 7.4, 300K
Protocol: Magnetic Resonance Imaging (MRI) experiments were carried out in a BioSpec 70/30 Bruker system using a 7.0 T horizontal-bore superconducting magnet equipped with actively shielded gradients (B-GA12 gradient coil inserted into a B-GA20S gradient system). A quadrature 72 mm inner diameter volume coil was used for in vitro studies.
Relaxometric measurements. Longitudinal (r1) and transverse (r2) relaxivities were determined per concentration of PROXYL units. […] The software used for the calculations of T1 and T2 relaxations was Paravision 6.0 (Bruker Software). r1 relaxivity. Series of axial T1-weighted (T1W) images were acquired for each concentration of PROXYL to obtain T1 maps based on a magnetization saturation experiment and the following parameters: repetition time (TR) = 70-6000 ms, echo time (TE) = 9.2 ms, field of view (FOV) = 2.5 x 2.5 cm, averages (Av) = 1, acquisition matrix (Mtx) = 128 x 128. The T1 values were calculated from the mean signal in the region of interest (ROI) for each repetition time, adjusted to the equation: S = S0 [1 - […]]. r2 relaxivity. T2 maps were calculated from multi spin echo images with a TR of 2 s. 25 echo images were acquired with a TE of 8.02 ms, which was the interval time between echo images acquisitions, too. […] The T2 values were calculated from mean signal in the ROI for each echo image, adjusted according to the equation: S = S0 […]]. […]

SMILES | relaxivity [1] [s⁻¹ mM⁻¹] | Initial stage k (M^-1s^-1) x 10^3 [2] [M^-1s^-1 x 10^3] | r1^7T ([3]; longitudinal relaxivity per unit of nitroxyl radical) [mM⁻¹ s⁻¹] | r2^7T ([3]; transverse relaxivity per unit of nitroxyl radical) [mM⁻¹ s⁻¹]
O=C([O-])CN(CCN(CC(=O)[O-])CC(=O)O)CCN(CC(=O)[O-])CC(=O)O.[Gd+3] [Gd-DTPA] | 3.2 |  |  | 
CC1(C)CC(C(=O)O)C(C)(C)N1[O] (stereo not shown) [3-carboxy PROXYL, 3-carboxy-PROXYL] |  | 11.2 | 0.20 ± 0.014 | 0.23 ± 0.06
